According to patent US12357585B2, “Cannabigerol and pharmaceutical compositions comprising cannabigerol for use in the treatment of insomnia” (AKASHA CORPORATION, priority 2019, dated 2025):

Tested on: panel members
Test: Panel-mediated testing of Cannabis accessions with defined cannabinoid profiles (panel N=67, plus anecdotal evidence)
Assay type: in vivo, human
Text: This method allowed deduction, and therefore, for the first time, the introduction of a new chemotaxonomic classification system merely based on the cannabinoid composition of the plant samples (strains). 15 chemotypes are defined and many more sub-chemotypes are lately added. The samples given to panel members (accessions) contained Cannabis flos, the dried flower tips of the female Cannabis plant. […] All the 45,000 different “strains” were collected and compared to the panel data and data derived from retrospective (meta-) research and anecdotal evidence mainly originated from users, for both recreative and medicinal usage, from the Netherlands. Accession from Spain is included as a parameter and seemed important for the chemotaxonomic scheme for Cannabis species.
The anecdotal evidence is derived from and the panel members are selected from persons, men and women, of the age of 18 till 72 years old. They consumed cannabis joints or vapor having defined cannabinoid profiles, and record the effect during time. Monitoring takes 24 hours, to include data about wear-off problems after night (the next day). The cannabinoids according to the invention may for example be consumed as follows: • 1—Administered as Cannabis simplex per 50 mg unit dose for self-titration. […]

CCCCCc1cc(O)c(C/C=C(\C)CCC=C(C)C)c(O)c1 [Cannabigerol]
sleep attained by subjects (all subjects, in high concentration range "narcotic"): good or very good deep | Effects (panel session, vapor, joints or tea potion, ad libitum, effects dosage and patient related): “indica” or “stoned” effects; drowsiness
